Consider eight compounds from ChEMBL document CHEMBL1201862, “PubChem BioAssay data set” (2004).

Common to all, as to experiment: NCI tumour cell line growth inhibition, 48 h
For assay [1], the system named is HOP-62.
The test system of assay [2] is OVCAR-4.
Assay [3] concerns KM12.
Assay [4] concerns M14.
Assay [5] has as its system UO-31.
The subject of assay [6] is SNB-75.
Assay [7] has as its system T47D.
The test system of assay [8] is HCT-116.
The subject of assay [9] is OVCAR-8.
For assay [10], the system named is HOP-92.
Assay [11] concerns HL-60.
Assay [12] deals with MDA-N.
Assay [13] relates to SF-295.
Assay [14] relates to SK-MEL-28.
For assay [15], the system named is A498.
Assay [16] concerns OVCAR-3.
Assay [17] concerns OVCAR-5.
The subject of assay [18] is SF-268.
Assay [19] deals with Hs-578T.
The test system of assay [20] is KM-20L2.

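Where inhibition never reached the appropriate level, the endpoint shown equals the highest concentration tested. Otherwise, values were interpolated linearly from a five-concentration, 48-hour dose response in 96-well plates. GI50 marks 50% less growth.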 The source made the active and inactive calls. Rule as the data show it: active = GI50 up to about 1.1 µM and inactive = higher.

In the case of `c1ccc(NCCSc2nc3ccccc3s2)cc1`, the GI50 in assay [1] is > 100 µM (inactive); in [2] it was 49.8 µM (inactive); in assay [3] it was 30.9 µM (inactive); in assay [4] it was 44.7 µM (inactive); in assay [5], 35 µM (inactive); in [6] it was > 100 µM (inactive). Besides, the GI50 in assay [7] was 36.2 µM (inactive); in [8], 37.3 µM (inactive); in assay [9], 79.1 µM (inactive); in assay [10], 41.1 µM (inactive); in [11], 32.1 µM (inactive); in assay [12], 36.9 µM (inactive). The GI50 in assay [13] is > 100 µM (inactive); in assay [14] it was > 100 µM (inactive); in assay [15], 26.5 µM (inactive); in [16], 88.3 µM (inactive); in assay [17] it was 54 µM (inactive); in assay [18] it was > 100 µM (inactive). In [19], the GI50 is > 100 µM (inactive).

For the compound `CN(C)CCNc1nc2ccccc2c2c1C(=O)c1ccccc1-2`, the GI50 in assay [1] was 0.233 µM (active); in assay [2] it was 0.338 µM (active); in assay [3] it was 0.326 µM (active); in assay [4], 0.316 µM (active); in assay [5] it was 0.15 µM (active); in assay [6], 0.564 µM (active). For the same compound, the GI50 in assay [7] is 0.281 µM (active); in assay [8], 0.049 µM (active); in assay [9], 0.195 µM (active); in [10], 0.327 µM (active); in assay [11], < 0.0432 µM (active); in assay [12] it was 0.318 µM (active). In addition, the GI50 is 0.225 µM (active) in assay [13]; 0.471 µM (active) in assay [14]; 0.163 µM (active) in assay [15]; 0.556 µM (active) in assay [16]; 0.367 µM (active) in [17]; 0.279 µM (active) in assay [18]. In assay [19], the GI50 is 2.1 µM (inactive).

Turning to `C=C1CC(Cn2cc(Br)c(=O)[nH]c2=O)(c2ccc(Br)cc2)OC1=O` (stereo not drawn), the GI50 in [1] was 14.5 µM (inactive); in assay [2] it was 1.85 µM (inactive); in assay [3], 4.02 µM (inactive); in assay [4] it was 1.59 µM (inactive); in [5], 14.1 µM (inactive); in [6], 13.2 µM (inactive). The GI50 in assay [7] is 2.03 µM (inactive); in assay [8], 1.36 µM (inactive); in assay [9], 15.3 µM (inactive); in assay [10], 1.33 µM (inactive); in assay [11], 0.621 µM (active); in assay [12], 2.37 µM (inactive). Besides, the GI50 is 12.1 µM (inactive) in [13]; 7.19 µM (inactive) in [14]; 1.22 µM (inactive) in assay [15]; 3.34 µM (inactive) in assay [16]; 6.38 µM (inactive) in [17]; 13.6 µM (inactive) in [18]. Moreover, in [19], the GI50 was 5.98 µM (inactive).

`NC1CC(=O)c2c(I)sc(I)c21` (stereo not drawn): the GI50 in assay [1] is 19.1 µM (inactive); in [2], 20.1 µM (inactive); in assay [3] it was 15.4 µM (inactive); in [4] it was 27.2 µM (inactive); in assay [5] it was 19.2 µM (inactive); in [6], 20.6 µM (inactive). For the same compound, the GI50 in [7] is 46.2 µM (inactive); in assay [8], 12.4 µM (inactive); in assay [9], 20.6 µM (inactive); in assay [10], 22.8 µM (inactive); in assay [11] it was 4.24 µM (inactive); in assay [12] it was 19.7 µM (inactive). The GI50 in assay [13] was 21 µM (inactive); in assay [14] it was 21.4 µM (inactive); in [15], 20 µM (inactive); in [16] it was 20 µM (inactive); in assay [17] it was 24.1 µM (inactive); in assay [18], 21 µM (inactive). Moreover, the GI50 in [19] is 30.3 µM (inactive).

Regarding `CC(=O)Oc1ccc2c3c1[C@H]1O[C@H]1c1cccc(c1-3)[C@@H]1O[C@H]21`, the GI50 was 5.19 µM (inactive) in assay [1]; 7.23 µM (inactive) in [2]; 12.6 µM (inactive) in assay [3]; 4.81 µM (inactive) in [4]; 3.74 µM (inactive) in assay [5]; 4.13 µM (inactive) in assay [6]. Also, the GI50 is 2.09 µM (inactive) in assay [7]; 11.2 µM (inactive) in [8]; 4.22 µM (inactive) in assay [9]; 9.68 µM (inactive) in assay [10]; 1.82 µM (inactive) in assay [11]; 6.87 µM (inactive) in assay [12]. For the same compound, the GI50 was 10 µM (inactive) in assay [13]; 8.15 µM (inactive) in [14]; 11.9 µM (inactive) in assay [15]; 3.18 µM (inactive) in [16]; 14.8 µM (inactive) in assay [17]; 5.62 µM (inactive) in assay [18]. In addition, in [19], the GI50 is 5.58 µM (inactive).

In the case of `Cc1nc2ccccc2[s+]c1-c1cnc(NC#N)nc1C(=O)Nc1cccc(Cl)c1`, the GI50 in assay [1], in assay [2], in assay [3], in assay [4], in assay [5] and in [6] was > 100 µM (inactive) throughout. In addition, the GI50 in assay [8], in assay [9], in [13], in assay [14], in [20] and in assay [15] was > 100 µM (inactive) throughout. The GI50 in assay [16], in assay [17] and in assay [18] was > 100 µM (inactive) in each case.

Turning to `Clc1ccc(C2C3COc4ccccc4C3=NN2c2ccccc2)cc1` (stereo not drawn), the GI50 was > 100 µM (inactive) in [1]; > 100 µM (inactive) in assay [2]; 20.7 µM (inactive) in [3]; 96.8 µM (inactive) in assay [4]; > 100 µM (inactive) in [5]; > 70.3 µM (inactive) in assay [6]. For the same compound, the GI50 in assay [7] is > 69.7 µM (inactive); in [8], 33.2 µM (inactive); in assay [9] it was > 69.5 µM (inactive); in [10], > 100 µM (inactive); in [11] it was 27.4 µM (inactive); in [12], 22.8 µM (inactive). Besides, the GI50 in [13] is > 100 µM (inactive); in [14], 99.5 µM (inactive); in assay [15] it was > 100 µM (inactive); in assay [16], > 57.3 µM (inactive); in [17], > 100 µM (inactive); in assay [18], 44.7 µM (inactive). In assay [19], the GI50 was 54.2 µM (inactive).

For `O=c1c(C(c2ccc(OCc3ccccc3)cc2)c2c(O)oc3ccccc3c2=O)c(O)oc2ccccc12`, the GI50 was 47.5 µM (inactive) in [1]; 46.1 µM (inactive) in assay [2]; 29.6 µM (inactive) in assay [3]; 48.1 µM (inactive) in assay [4]; 19 µM (inactive) in assay [5]; 18.6 µM (inactive) in assay [6]. Besides, the GI50 in assay [7] is 81.1 µM (inactive); in [8], 36.8 µM (inactive); in [9], 33.4 µM (inactive); in [10] it was 36.2 µM (inactive); in [11], 32.8 µM (inactive); in [12], 24.7 µM (inactive). Besides, the GI50 in assay [13] was 61.2 µM (inactive); in assay [14] it was 78 µM (inactive); in assay [15], 83.2 µM (inactive); in [16], 63.8 µM (inactive); in assay [17] it was 75.2 µM (inactive); in assay [18], 29.4 µM (inactive). In addition, in [19], the GI50 was 34.3 µM (inactive).
